These results are taken from ChEMBL document CHEMBL5505979, “Novel aminothiazoximone-corbelled ethoxycarbonylpyrimidones with antibiofilm activity to conquer Gram-negative bacteria through potential multitargeting effects” (Eur J Med Chem, 2024).

What all share (format): functional
The subject of assay [1] is Staphylococcus aureus. The assay is described as follows: Anti-bacterial activity against Staphylococcus aureus ATCC 1708 assessed as inhibition of bacterial growth. The following applies: Staphylococcus aureus, ATCC 1708; read-out: MIC.
Another assay deals with Acinetobacter baumannii. The assay is described as follows: Anti-bacterial activity against Acinetobacter baumannii R674 assessed as inhibition of bacterial growth.
The test system of assay [2] is Staphylococcus aureus. The assay is described as follows: Anti-bacterial activity against methicillin-resistant Staphylococcus aureus ATCC 43300 assessed as inhibition of bacterial growth. Particulars: Staphylococcus aureus, ATCC 43300; read-out: MIC.
Assay [3] deals with Escherichia coli. The assay is described as follows: Anti-bacterial activity against Escherichia coli ATCC 25922 assessed as inhibition of bacterial growth.
In assay [4] the test system is Staphylococcus aureus. The assay is described as follows: Anti-bacterial activity against Staphylococcus aureus ATCC 25923 assessed as inhibition of bacterial growth. The following applies: Staphylococcus aureus, ATCC 25923; read-out: MIC.
Assay [5] relates to Staphylococcus aureus. As to the kind of experiment: Anti-bacterial activity against methicillin-resistant Staphylococcus aureus N315 assessed as inhibition of bacterial growth. The following applies: Staphylococcus aureus, N315; read-out: MIC.
The subject of assay [6] is Staphylococcus aureus. As to the kind of experiment: Anti-bacterial activity against Staphylococcus aureus ATCC 6538 assessed as inhibition of bacterial growth.
The next assay has as its system Klebsiella pneumoniae. The assay is described as follows: Anti-bacterial activity against Klebsiella pneumoniae KPN325 assessed as inhibition of bacterial growth. Particulars: Klebsiella pneumoniae, KPN325; read-out: MIC.
The subject of assay [7] is Pseudomonas aeruginosa. The assay is described as follows: Anti-bacterial activity against Pseudomonas aeruginosa ATCC 27853 assessed as inhibition of bacterial growth. Particulars: Pseudomonas aeruginosa, ATCC 27853; read-out: MIC.
In assay [8] the test system is Pseudomonas aeruginosa. As to the kind of experiment: Anti-bacterial activity against Pseudomonas aeruginosa ATCC 15442 assessed as inhibition of bacterial growth. Particulars: Pseudomonas aeruginosa, ATCC 15442; read-out: MIC.
Assay [9] relates to Escherichia coli. As to the kind of experiment: Anti-bacterial activity against Escherichia coli JM109 assessed as inhibition of bacterial growth.
Assay [10] relates to Candida albicans. The assay is described as follows: Anti-fungal activity against Candida albicans 90023 assessed as inhibition of fungal growth.
Assay [11] concerns Pseudomonas aeruginosa. The assay is described as follows: Anti-bacterial activity against Pseudomonas aeruginosa CMCC (B) 10104 assessed as inhibition of bacterial growth. The following applies: Pseudomonas aeruginosa, CMCC (B) 10104; read-out: MIC.
Assay [12] has as its system Staphylococcus aureus. The assay is described as follows: Anti-bacterial activity against Staphylococcus aureus ATCC 12600 assessed as inhibition of bacterial growth. The following applies: Staphylococcus aureus, ATCC 12600; read-out: MIC.
The subject of the next assay is Candida tropicalis. As to the kind of experiment: Anti-fungal activity against Candida tropicalis assessed as inhibition of fungal growth. Particulars: Candida tropicalis; read-out: MIC.
For the next assay, the system named is Candida parapsilosis. The assay is described as follows: Anti-fungal activity against Candida parapsilosis assessed as inhibition of fungal growth. Particulars: Lodderomyces parapsilosis; read-out: MIC.
Assay [13] relates to Pseudomonas aeruginosa. The assay is described as follows: Anti-bacterial activity against Pseudomonas aeruginosa ST235 assessed as inhibition of bacterial growth. Particulars: Pseudomonas aeruginosa, ST235; read-out: MIC.
The test system of assay [14] is Candida albicans. The assay is described as follows: Anti-fungal activity against Candida albicans assessed as inhibition of fungal growth. Particulars: Candida albicans; read-out: MIC.
Assay [15] relates to Staphylococcus aureus. As to the kind of experiment: Anti-bacterial activity against Staphylococcus aureus ATCC 29213 assessed as inhibition of bacterial growth. The following applies: Staphylococcus aureus, ATCC 29213; read-out: MIC.
Assay [16] concerns Pseudomonas aeruginosa. The assay is described as follows: Anti-bacterial activity against Pseudomonas aeruginosa ATCC 9027 assessed as inhibition of bacterial growth.
Assay [17] concerns Staphylococcus aureus. The assay is described as follows: Anti-bacterial activity against Staphylococcus aureus CMCC (B) 26001 assessed as inhibition of bacterial growth.
Assay [18] has as its system Staphylococcus aureus. As to the kind of experiment: Anti-bacterial activity against Staphylococcus aureus CMCC (B) 26003 assessed as inhibition of bacterial growth.
The next assay relates to Enterococcus faecalis. As to the kind of experiment: Anti-bacterial activity against Enterococcus faecalis V583 assessed as inhibition of bacterial growth.

Values after ≈ are worked out from the molar mass of the structure shown.

As usually defined, the MIC is the lowest concentration found to suppress growth. Take `CCOC(=O)C1=C(CN2CCN(C(=O)/C(=N/OC)c3csc(N)n3)CC2)NC(=O)NC1c1ccc(F)cc1` (configuration not stated): the MIC in the assay with Staphylococcus aureus [1] is 117 µM (≈ 63.8 µg/mL); in the assay with Acinetobacter baumannii, 59 µM (≈ 32.2 µg/mL); in the assay on Staphylococcus aureus [2] it was 59 µM (≈ 32.2 µg/mL); in the assay on Escherichia coli [3] it was 59 µM (≈ 32.2 µg/mL); with Staphylococcus aureus [4] it was 59 µM (≈ 32.2 µg/mL); in the assay on Staphylococcus aureus [5], 117 µM (≈ 63.8 µg/mL). The MIC in the assay on Staphylococcus aureus [6] turned out to be 117 µM (≈ 63.8 µg/mL); in the assay with Klebsiella pneumoniae, 117 µM (≈ 63.8 µg/mL); with Pseudomonas aeruginosa [7], 117 µM (≈ 63.8 µg/mL); in the assay on Pseudomonas aeruginosa [8], 59 µM (≈ 32.2 µg/mL); in the assay with Escherichia coli [9], 117 µM (≈ 63.8 µg/mL); in the assay with Candida albicans [10], 6 µM (≈ 3.27 µg/mL). The MIC with Pseudomonas aeruginosa [11] was 117 µM (≈ 63.8 µg/mL); in the assay with Staphylococcus aureus [12], 59 µM (≈ 32.2 µg/mL); in the assay with Candida tropicalis, 447 µM (≈ 244 µg/mL); in the assay on Candida parapsilosis, 447 µM (≈ 244 µg/mL); in the assay with Pseudomonas aeruginosa [13], 117 µM (≈ 63.8 µg/mL); in the assay on Candida albicans [14] it was 447 µM (≈ 244 µg/mL). Also, the MIC was 59 µM (≈ 32.2 µg/mL) in the assay on Staphylococcus aureus [15]; 117 µM (≈ 63.8 µg/mL) in the assay with Pseudomonas aeruginosa [16]; 59 µM (≈ 32.2 µg/mL) in the assay with Staphylococcus aureus [17]; 235 µM (≈ 128 µg/mL) in the assay with Staphylococcus aureus [18]; 29 µM (≈ 15.8 µg/mL) in the assay on Enterococcus faecalis.
As to `CCOC(=O)C1=C(CN2CCN(C(=O)/C(=N/OC)c3csc(N)n3)CC2)NC(=O)NC1c1ccc(N(C)C)cc1` (configuration not stated), the MIC came to 112 µM (≈ 63.9 µg/mL) in the assay with Staphylococcus aureus [1]; 56 µM (≈ 32 µg/mL) in the assay with Acinetobacter baumannii; 56 µM (≈ 32 µg/mL) in the assay on Staphylococcus aureus [2]; 225 µM (≈ 128 µg/mL) in the assay on Escherichia coli [3]; 112 µM (≈ 63.9 µg/mL) in the assay with Staphylococcus aureus [4]; 449 µM (≈ 256 µg/mL) in the assay on Staphylococcus aureus [5]. Also, the MIC amounted to 28 µM (≈ 16 µg/mL) with Staphylococcus aureus [6]; 225 µM (≈ 128 µg/mL) in the assay with Klebsiella pneumoniae; 225 µM (≈ 128 µg/mL) in the assay on Pseudomonas aeruginosa [7]; 225 µM (≈ 128 µg/mL) in the assay with Pseudomonas aeruginosa [8]; 112 µM (≈ 63.9 µg/mL) in the assay on Escherichia coli [9]; 52 µM (≈ 29.7 µg/mL) with Candida albicans [10]. The MIC is 225 µM (≈ 128 µg/mL) with Pseudomonas aeruginosa [11]; 225 µM (≈ 128 µg/mL) in the assay with Staphylococcus aureus [12]; 412 µM (≈ 235 µg/mL) in the assay with Candida tropicalis; 412 µM (≈ 235 µg/mL) in the assay on Candida parapsilosis; 225 µM (≈ 128 µg/mL) in the assay with Pseudomonas aeruginosa [13]; 412 µM (≈ 235 µg/mL) in the assay on Candida albicans [14]. Besides, the MIC in the assay with Staphylococcus aureus [15] amounted to 225 µM (≈ 128 µg/mL); with Pseudomonas aeruginosa [16], 225 µM (≈ 128 µg/mL); with Staphylococcus aureus [17], 449 µM (≈ 256 µg/mL); with Staphylococcus aureus [18], 225 µM (≈ 128 µg/mL); with Enterococcus faecalis, 28 µM (≈ 16 µg/mL).
On to `CCCCc1nc(Cl)c(C2NC(=O)NC(CN3CCN(CC(=O)c4ccc(F)cc4)CC3)=C2C(=O)OCC)[nH]1` (configuration not stated), for which the MIC with Staphylococcus aureus [1] worked out at 114 µM (≈ 64 µg/mL); with Acinetobacter baumannii, 114 µM (≈ 64 µg/mL); in the assay on Staphylococcus aureus [2], 114 µM (≈ 64 µg/mL); with Escherichia coli [3], 114 µM (≈ 64 µg/mL); in the assay on Staphylococcus aureus [4], 57 µM (≈ 32 µg/mL); in the assay on Staphylococcus aureus [5], 229 µM (≈ 128 µg/mL). Besides, the MIC was found to be 229 µM (≈ 128 µg/mL) with Staphylococcus aureus [6]; 229 µM (≈ 128 µg/mL) in the assay on Klebsiella pneumoniae; 57 µM (≈ 32 µg/mL) in the assay on Pseudomonas aeruginosa [7]; 114 µM (≈ 64 µg/mL) in the assay with Pseudomonas aeruginosa [8]; 114 µM (≈ 64 µg/mL) with Escherichia coli [9]; 29 µM (≈ 16.3 µg/mL) in the assay with Candida albicans [10]. Also, the MIC came out at 114 µM (≈ 64 µg/mL) in the assay on Pseudomonas aeruginosa [11]; 57 µM (≈ 32 µg/mL) in the assay on Staphylococcus aureus [12]; 457 µM (≈ 256 µg/mL) with Candida tropicalis; 457 µM (≈ 256 µg/mL) in the assay with Candida parapsilosis; 57 µM (≈ 32 µg/mL) in the assay with Pseudomonas aeruginosa [13]; 457 µM (≈ 256 µg/mL) in the assay on Candida albicans [14]. Further, the MIC is 57 µM (≈ 32 µg/mL) with Staphylococcus aureus [15]; 114 µM (≈ 64 µg/mL) in the assay on Pseudomonas aeruginosa [16]; 57 µM (≈ 32 µg/mL) in the assay on Staphylococcus aureus [17]; 114 µM (≈ 64 µg/mL) in the assay on Staphylococcus aureus [18]; 57 µM (≈ 32 µg/mL) in the assay on Enterococcus faecalis.
`CCOC(=O)C1=C(CN2CCN(C(=O)/C(=N/OC)c3csc(N)n3)CC2)NC(=O)NC1c1ccc(F)cc1F` (configuration not stated): the MIC came to 57 µM (≈ 32.1 µg/mL) with Staphylococcus aureus [1]; 57 µM (≈ 32.1 µg/mL) in the assay with Acinetobacter baumannii; 28 µM (≈ 15.8 µg/mL) with Staphylococcus aureus [2]; 57 µM (≈ 32.1 µg/mL) in the assay with Escherichia coli [3]; 28 µM (≈ 15.8 µg/mL) with Staphylococcus aureus [4]; 114 µM (≈ 64.2 µg/mL) in the assay on Staphylococcus aureus [5]. The MIC with Staphylococcus aureus [6] stood at 57 µM (≈ 32.1 µg/mL); in the assay on Klebsiella pneumoniae, 114 µM (≈ 64.2 µg/mL); with Pseudomonas aeruginosa [7], 57 µM (≈ 32.1 µg/mL); in the assay with Pseudomonas aeruginosa [8], 28 µM (≈ 15.8 µg/mL); in the assay on Escherichia coli [9], 114 µM (≈ 64.2 µg/mL); with Candida albicans [10], 15 µM (≈ 8.45 µg/mL). For the same compound, the MIC was found to be 114 µM (≈ 64.2 µg/mL) in the assay on Pseudomonas aeruginosa [11]; 57 µM (≈ 32.1 µg/mL) in the assay with Staphylococcus aureus [12]; 464 µM (≈ 262 µg/mL) in the assay on Candida tropicalis; 464 µM (≈ 262 µg/mL) in the assay with Candida parapsilosis; 57 µM (≈ 32.1 µg/mL) with Pseudomonas aeruginosa [13]; 464 µM (≈ 262 µg/mL) with Candida albicans [14]. Also, the MIC was found to be 57 µM (≈ 32.1 µg/mL) in the assay on Staphylococcus aureus [15]; 114 µM (≈ 64.2 µg/mL) in the assay with Pseudomonas aeruginosa [16]; 57 µM (≈ 32.1 µg/mL) with Staphylococcus aureus [17]; 114 µM (≈ 64.2 µg/mL) in the assay with Staphylococcus aureus [18]; 28 µM (≈ 15.8 µg/mL) in the assay on Enterococcus faecalis.
